pIC50, pKi: −log10 of the molar value. Read-outs that look alike come from different tables or passages of the source.
How the values were obtained:
[1] = test system: CYP3A4&5; test: in vitro; settings: human, human liver microsomes, probe testosterone;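 further: Read-out is the metabolite generated from the probe substrate, quantified as HPLC-MS/MS peak area once incubation ends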
[2] = target: T1, human recombinant AT2 receptor (Homo sapiens, UniProt P50052); test: Binding to AT2 receptor, radiometric scintillation assay (Eurofins ITEM26); settings: ligand 125I CGP 42112A, * rows = mean of runs; for pKi: seven-point dose-response curve; for pIC50: test compounds at 1, 10, 100 and 1000 nM, read-out: AT2 GraFit IC50
T1 construct: purchased Eurofins ITEM26 (protocol number)
T1 sequence (P50052 1-363): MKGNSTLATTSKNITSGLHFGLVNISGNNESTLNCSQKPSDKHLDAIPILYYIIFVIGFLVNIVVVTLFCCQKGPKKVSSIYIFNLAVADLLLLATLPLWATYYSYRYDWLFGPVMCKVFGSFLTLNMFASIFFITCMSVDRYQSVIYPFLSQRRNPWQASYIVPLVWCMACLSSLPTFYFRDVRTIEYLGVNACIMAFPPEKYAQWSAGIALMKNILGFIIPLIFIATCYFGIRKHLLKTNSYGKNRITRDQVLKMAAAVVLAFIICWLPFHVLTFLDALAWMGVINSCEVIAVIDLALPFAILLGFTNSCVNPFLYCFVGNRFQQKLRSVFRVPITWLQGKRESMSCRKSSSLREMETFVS

[3] = Metabolic stability in pooled human liver microsomes; type: in vitro ADME; settings: human, pooled human liver microsomes, pooled human liver microsomes 0.5 mg/mL, 1 μM test compound, 37° C., * rows = mean of two runs
Experimental: Pooled human liver microsomes in PBS at a concentration of 0.5 mg/mL was incubated with or without 1 mM NADPH for 70 min at 37° C. Test compound was added after 10 minutes to a final concentration of 1 μM. Samples were withdrawn at 0, 5, 15 and 60 minutes and added to test tubes containing acetonitrile, to stop the reaction, and with terfenadine, used as internal standard. After centrifugation at 10 000×g for 5 minutes the supernatant was diluted 1:1 with 1% formic acid. Samples were separated on a reverse phase column and detected by triple quadrupole MSMS (Agilant model 6540). The concentration of the parent compound at the different time points was measured with an external standard curve using terfenadine as internal standard and the initial metabolic rate in the presence or absence of NADPH calculated.

[4] = target: CYP2C9 (Homo sapiens, UniProt P11712); test: CYP inhibition in human liver microsomes (Eurofins ITEMG232); type: in vitro ADME; design: isoform-specific substrates incubated with human liver microsomes; tissue Eurofins ITEMG232 (protocol number); host or cells: human liver microsomes; settings: human, probe diclofenac, substrate diclofenac, read-out: CYP2C9 Inh %
CYP2C9, sequence (P11712 whole entry, canonical isoform): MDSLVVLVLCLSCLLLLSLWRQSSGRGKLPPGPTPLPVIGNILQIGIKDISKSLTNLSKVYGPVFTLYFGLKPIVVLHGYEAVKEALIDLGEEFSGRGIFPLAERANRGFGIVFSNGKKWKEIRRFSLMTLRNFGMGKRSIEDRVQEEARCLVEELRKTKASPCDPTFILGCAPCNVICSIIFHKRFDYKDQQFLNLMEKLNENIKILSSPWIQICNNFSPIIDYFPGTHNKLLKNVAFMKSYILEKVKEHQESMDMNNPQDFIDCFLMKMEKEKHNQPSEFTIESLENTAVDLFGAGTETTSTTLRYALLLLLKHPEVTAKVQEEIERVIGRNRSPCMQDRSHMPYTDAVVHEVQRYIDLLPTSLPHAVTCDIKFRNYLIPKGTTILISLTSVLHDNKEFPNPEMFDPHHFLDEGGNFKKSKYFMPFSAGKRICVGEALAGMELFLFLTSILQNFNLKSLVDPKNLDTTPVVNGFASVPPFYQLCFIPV

[5] = target: T2, CYP2C8 (Homo sapiens, UniProt P10632); test: as above; type: in vitro ADME; settings: human, probe paclitaxel and amodiaquine, substrate paclitaxel and amodiaquine, read-out: CYP2C8 Inh %
T2 construct: isoform-specific substrates incubated with human liver microsomes; tissue Eurofins ITEMG232 (protocol number); host or cells: human liver microsomes
T2 sequence (P10632 1-490): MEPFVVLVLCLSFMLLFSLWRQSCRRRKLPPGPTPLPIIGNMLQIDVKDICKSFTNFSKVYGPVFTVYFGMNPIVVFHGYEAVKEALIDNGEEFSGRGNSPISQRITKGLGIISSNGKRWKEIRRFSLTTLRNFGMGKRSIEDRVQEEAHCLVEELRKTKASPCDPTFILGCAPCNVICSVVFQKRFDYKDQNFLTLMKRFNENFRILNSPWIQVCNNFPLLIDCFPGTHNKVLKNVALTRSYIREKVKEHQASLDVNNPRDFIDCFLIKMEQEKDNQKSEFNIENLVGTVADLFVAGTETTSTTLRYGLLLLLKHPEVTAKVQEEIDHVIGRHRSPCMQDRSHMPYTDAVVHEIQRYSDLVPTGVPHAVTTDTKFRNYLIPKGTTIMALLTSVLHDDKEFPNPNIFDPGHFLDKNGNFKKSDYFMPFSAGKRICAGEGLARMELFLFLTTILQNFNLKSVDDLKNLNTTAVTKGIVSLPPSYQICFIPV

[6] = target: T3, CYP2C19 (Homo sapiens, UniProt P33261); test: as above; type: in vitro ADME; settings: human, probe omeprazole, substrate omeprazole, read-out: CYP2C19 Inh %
T3 construct: isoform-specific substrates incubated with human liver microsomes; tissue Eurofins ITEMG232 (protocol number); host or cells: human liver microsomes
T3 sequence (P33261 whole entry, canonical isoform): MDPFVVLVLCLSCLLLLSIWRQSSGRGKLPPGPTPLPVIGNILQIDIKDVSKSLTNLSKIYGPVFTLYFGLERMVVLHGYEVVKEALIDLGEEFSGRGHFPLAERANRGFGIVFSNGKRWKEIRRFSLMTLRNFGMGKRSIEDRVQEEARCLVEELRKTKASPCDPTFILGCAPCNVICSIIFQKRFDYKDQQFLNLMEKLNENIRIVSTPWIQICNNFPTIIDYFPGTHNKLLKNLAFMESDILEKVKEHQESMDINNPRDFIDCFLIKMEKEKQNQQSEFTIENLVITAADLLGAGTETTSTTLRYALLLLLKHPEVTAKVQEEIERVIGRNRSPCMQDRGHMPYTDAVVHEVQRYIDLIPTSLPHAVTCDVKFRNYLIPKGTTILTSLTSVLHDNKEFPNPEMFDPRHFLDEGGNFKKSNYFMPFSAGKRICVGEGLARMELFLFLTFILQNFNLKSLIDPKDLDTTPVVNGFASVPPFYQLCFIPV

[7] = target: T4, CYP2B6 (Homo sapiens, UniProt P20813); test: as above; type: in vitro ADME; settings: probe bupropion, substrate bupropion, read-out: CYP2B6 Inh %
T4 construct: isoform-specific substrates incubated with human liver microsomes; tissue Eurofins ITEMG232 (protocol number); host or cells: human liver microsomes
T4 sequence (P20813 1-491): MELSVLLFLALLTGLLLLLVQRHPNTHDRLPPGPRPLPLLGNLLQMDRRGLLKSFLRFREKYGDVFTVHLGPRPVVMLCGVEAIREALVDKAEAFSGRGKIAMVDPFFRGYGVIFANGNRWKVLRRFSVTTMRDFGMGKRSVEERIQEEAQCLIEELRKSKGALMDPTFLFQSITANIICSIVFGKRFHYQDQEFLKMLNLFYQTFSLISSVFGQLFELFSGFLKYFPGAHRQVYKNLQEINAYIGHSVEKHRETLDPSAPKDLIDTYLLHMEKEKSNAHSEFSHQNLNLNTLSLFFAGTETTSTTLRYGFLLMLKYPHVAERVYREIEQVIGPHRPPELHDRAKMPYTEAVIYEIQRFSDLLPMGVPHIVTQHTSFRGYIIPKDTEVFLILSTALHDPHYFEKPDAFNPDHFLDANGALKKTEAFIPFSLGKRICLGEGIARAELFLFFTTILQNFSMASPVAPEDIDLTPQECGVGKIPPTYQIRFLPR

[8] = target: T5, CYP1A2 (Homo sapiens, UniProt P05177); test: in vitro; type: in vitro ADME; settings: human, microsomes, human liver microsomes, substrate phenacetin, read-out: CYP1A2 Inh %
T5 construct: isoform-specific substrates incubated with human liver microsomes; tissue Eurofins ITEMG232 (protocol number); host or cells: human liver microsomes
T5 sequence (P05177 whole entry, canonical isoform): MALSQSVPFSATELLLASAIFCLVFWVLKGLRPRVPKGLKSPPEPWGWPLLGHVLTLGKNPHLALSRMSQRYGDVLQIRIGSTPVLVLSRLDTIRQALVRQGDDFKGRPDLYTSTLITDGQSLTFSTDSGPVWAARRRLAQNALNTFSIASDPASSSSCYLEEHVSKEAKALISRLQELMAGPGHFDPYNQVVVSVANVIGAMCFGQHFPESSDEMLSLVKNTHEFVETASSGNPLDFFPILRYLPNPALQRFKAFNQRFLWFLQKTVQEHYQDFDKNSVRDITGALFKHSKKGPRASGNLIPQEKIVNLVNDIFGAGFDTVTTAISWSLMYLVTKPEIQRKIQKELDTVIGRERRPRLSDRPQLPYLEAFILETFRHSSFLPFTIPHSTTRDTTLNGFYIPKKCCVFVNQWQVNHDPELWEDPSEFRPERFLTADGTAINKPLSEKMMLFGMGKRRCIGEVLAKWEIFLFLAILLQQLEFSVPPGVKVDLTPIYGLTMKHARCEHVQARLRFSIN
Experimental: The following substrates were used; CYP1A phenacetin, CYP2B36 bupropion, CYP2C8 paclitaxel and amodiaquine, CYP2C9 diclofenac, CYP2C19 omeprazole, CYP2D6 dextromethorphan, CYP3A midazolam and testosterone.
At the end of the incubation, the formation of metabolite was monitored by HPLC-MS/MS as the peak area response.

[9] = target: CYP3A4 (Homo sapiens, UniProt P08684); test: CYP inhibition in human liver microsomes (Eurofins ITEMG232), midazolam substrate; type: in vitro ADME; design: isoform-specific substrates incubated with human liver microsomes; tissue Eurofins ITEMG232 (protocol number); host or cells: human liver microsomes; settings: human, probe midazolam, read-out: CYP3A4 midazolam Inh %
CYP3A4, sequence (P08684 whole entry, canonical isoform): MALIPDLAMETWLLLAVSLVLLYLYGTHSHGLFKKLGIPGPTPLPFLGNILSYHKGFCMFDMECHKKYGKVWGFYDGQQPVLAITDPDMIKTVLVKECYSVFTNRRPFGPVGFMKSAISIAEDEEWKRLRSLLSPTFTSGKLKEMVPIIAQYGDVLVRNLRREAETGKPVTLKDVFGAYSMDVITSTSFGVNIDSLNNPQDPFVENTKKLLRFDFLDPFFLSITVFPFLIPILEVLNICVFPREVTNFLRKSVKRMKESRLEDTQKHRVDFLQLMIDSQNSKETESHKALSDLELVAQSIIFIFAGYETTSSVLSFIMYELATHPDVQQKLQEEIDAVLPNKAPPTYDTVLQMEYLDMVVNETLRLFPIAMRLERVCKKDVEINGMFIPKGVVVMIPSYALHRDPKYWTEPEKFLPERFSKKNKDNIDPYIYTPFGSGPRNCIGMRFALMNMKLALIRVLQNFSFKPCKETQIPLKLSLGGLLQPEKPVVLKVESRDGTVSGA

[10] = target: T6, CYP2D6 (Homo sapiens, UniProt P10635); test: CYP inhibition in human liver microsomes (Eurofins ITEMG232); type: in vitro ADME; settings: probe dextromethorphan, substrate dextromethorphan, read-out: CYP2D6 Inh %
T6 construct: isoform-specific substrates incubated with human liver microsomes; tissue Eurofins ITEMG232 (protocol number); host or cells: human liver microsomes
T6 sequence (P10635 whole entry, canonical isoform): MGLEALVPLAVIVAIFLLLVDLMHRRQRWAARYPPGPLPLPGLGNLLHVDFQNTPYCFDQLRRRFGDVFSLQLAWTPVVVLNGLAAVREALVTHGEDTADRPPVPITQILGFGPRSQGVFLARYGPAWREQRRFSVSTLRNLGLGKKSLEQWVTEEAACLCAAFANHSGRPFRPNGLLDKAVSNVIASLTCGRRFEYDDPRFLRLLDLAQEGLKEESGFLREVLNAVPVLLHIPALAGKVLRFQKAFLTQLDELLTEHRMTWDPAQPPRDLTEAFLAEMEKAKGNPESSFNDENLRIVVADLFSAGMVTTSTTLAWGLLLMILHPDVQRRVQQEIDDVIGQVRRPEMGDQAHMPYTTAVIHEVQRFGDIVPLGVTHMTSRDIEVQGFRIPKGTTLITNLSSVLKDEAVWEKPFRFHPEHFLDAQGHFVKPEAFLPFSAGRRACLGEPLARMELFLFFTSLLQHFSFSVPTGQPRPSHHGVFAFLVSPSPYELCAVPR

[11] = with 1 mM NADPH, read-out: T1/2, + NaDPH
[12] = without NADPH, read-out: T1/2, no NaDPH

Compound	inhibition at 10 µM [1]	pKi [2]	pIC50 [2]	half-life at 1 μM [3, 11]	half-life at 1 μM [3, 12]	inhibition at 10 µM [4]	inhibition at 10 µM [5]	inhibition at 10 µM [6]	inhibition at 10 µM [7]	inhibition at 10 µM [8]	inhibition at 10 µM [9]	inhibition at 10 µM [10]
CC(C)Cc1ccc(S(=O)(=O)Nc2nccs2)c(-c2ccc(Cn3ccnc3C(C)(C)C)c(F)c2)c1 [Example 8, 4′-((2-(tert-Butyl)-1H-imidazol-1-yl)methyl)-3′-fluoro-5-isobutyl-N-(thiazol-2-yl)-[1,1′-biphenyl]-2-sulfonamide]	42.6%	8.53	8.23	34 min	> 60 min	86.6%	88.3%	71.2%	55%	43%	0.4%	32.6%
COc1ccc(NS(=O)(=O)c2ccc(CC(C)C)cc2-c2ccc(Cn3ccnc3C(C)(C)C)cc2)nn1 [Example 14, 4′-((2-(tert-Butyl)-1H-imidazol-1-yl)methyl)-5-isobutyl-N-(6-methoxypyridazin-3-yl)-[1,1′-biphenyl]-2-sulfonamide]	24.8%	8.59	8.28	20 min	> 60 min	55.5%	74.3%	58.4%	25.9%	30%	10.3%	24.6%
CC(C)Cc1ccc(S(=O)(=O)Nc2ncc(Br)cn2)c(-c2ccc(Cn3ccnc3C(C)(C)C)c(F)c2)c1 [Example 11, N-(5-Bromopyrimidin-2-yl)-4′-((2-(tert-butyl)-1H-imidazol-1-yl)methyl)-3′-fluoro-5-isobutyl-[1,1′-biphenyl]-2-sulfonamide]	-19.3%	8.81	8.51	> 60 min	> 60 min	82%	89.6%	47.5%	48%	14.3%	16.1%	20%
Cc1nc(NS(=O)(=O)c2ccc(CC(C)C)cc2-c2ccc(Cn3ccnc3C(C)(C)C)cc2)oc1C [Example 13, 4′-((2-(tert-Butyl)-1H-imidazol-1-yl)methyl)-N-(4,5-dimethyloxazol-2-yl)-5-isobutyl-[1,1′-biphenyl]-2-sulfonamide]	-2.8%	7.64	7.34	34 min	> 60 min	50.9%	71.3%	52.1%	30.4%	19.8%	-48.7%	17.6%
Cc1cnc(NS(=O)(=O)c2ccc(CC(C)C)cc2-c2ccc(Cn3ccnc3C(C)(C)C)c(F)c2)nc1 [Example 26, 4′-((2-(tert-Butyl)-1H-imidazol-1-yl)methyl)-3′-fluoro-5-isobutyl-N-(5-methylpyrimidin-2-yl)-[1,1′-biphenyl]-2-sulfonamide]	34.9%	8.77	9.08	44 min	> 60 min	66.4%	9.9%	46.5%	16.9%	10.3%	48.7%	44.1%

Compounds with a higher pKi [2], results first:

inhibition at 10 µM [1]	pKi [2]	pIC50 [2]	half-life at 1 μM [3, 11]	half-life at 1 μM [3, 12]	inhibition at 10 µM [4]	inhibition at 10 µM [5]	inhibition at 10 µM [6]	inhibition at 10 µM [7]	inhibition at 10 µM [8]	inhibition at 10 µM [9]	inhibition at 10 µM [10]	Compound
37.4%	9.40	9.10	> 60 min	> 60 min	31.1%	41.6%	65%	40.8%	22.2%	34.8%	14.2%	Cc1nccn1Cc1ccc(-c2cc(CC(C)C)ccc2S(=O)(=O)Nc2ncccn2)cc1F [Example 28, 3′-Fluoro-5-isobutyl-4′-((2-methyl-1H-imidazol-1-yl)methyl)-N-(pyrimidin-2-yl)-[1,1′-biphenyl]-2-sulfonamide]
26.4%	8.87	8.57	> 60 min	> 60 min	76.8%	59.1%	60.2%	37.9%	-6.4%	45.8%	6.8%	CC(C)Cc1ccc(S(=O)(=O)Nc2ncc(C(F)(F)F)cn2)c(-c2ccc(Cn3ccnc3C(C)(C)C)c(F)c2)c1 [Example 21, 4′-((2-(tert-Butyl)-1H-imidazol-1-yl)methyl)-3′-fluoro-5-isobutyl-N-(5-(trifluoromethyl)pyrimidin-2-yl)-[1,1′-biphenyl]-2-sulfonamide]
21.8%	9.35	9.05	> 60 min	> 60 min	43%	58.2%	43.6%	25%	13.6%	15.4%	7.4%	CCc1nccn1Cc1ccc(-c2cc(CC(C)C)ccc2S(=O)(=O)Nc2ncccn2)cc1F [Example 29, 4′-((2-Ethyl-1H-imidazol-1-yl)methyl)-3′-fluoro-5-isobutyl-N-(pyrimidin-2-yl)-[1,1′-biphenyl]-2-sulfonamide]

— patent publication US12441718B2, “Selective angiotensin II compounds” (VICORE PHARMA AB, priority 2021, dated 2025)
